Tests used:
MDA-MB-453 = experiment: drug sensitivity score (DSS), CellTiter-Blue viability (DSS (AUC-based score)); higher = stronger viability inhibition; extreme values may be limits of the assay; conditions: incubation time: 72 h
In short: (§1)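 Compound was arrayed in 384-well plates as a 5- or 9-concentration series, and 20 µl of breast cancer cell suspension was seeded on top. After 72 h, each well received 2.5 µl CellTiter-Blue for 2 h at 37 °C before fluorescence reading at 560/590 nm. Per-plate normalisation used 0.1 % DMSO and a positive kill control, and the area under the fitted dose-response curve gave the drug sensitivity score.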

HCC1599 = experiment: as above; conditions: incubation time: 72 h
In short: as §1

HCC1937 [1] = experiment: as above; conditions: incubation time: 72 h
In short: as §1

CAL-85-1 = experiment: as above; conditions: incubation time: 72 h
In short: as §1

CAL-120 = conditions: 72 h
In short: (§2)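 To measure viability, fluorescence at 560/590 nm was read after 2.5 µl CellTiter-Blue had been added for 2 h at 37 °C. Cells from breast cancer lines had been seeded in 20 µl suspension onto 384-well plates pre-loaded with compound dissolved in 5 µl medium and kept for 72 h. EC50 comes from a fitted percent-inhibition dose-response curve censored at the highest concentration, after per-plate normalisation to vehicle and a positive kill control, Z'-factor checks, and removal of rows with zero drug sensitivity score.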

MFM-223 = conditions: 72 h
In short: as §2

MDA-MB-468 = conditions: 72 h
In short: as §2

BT-549 = conditions: 72 h
In short: as §2

MDA-MB-231 = conditions: 72 h
In short: as §2

SK-BR-3 = conditions: 72 h
In short: as §2

MDA-MB-436 = conditions: 72 h
In short: as §2

Hs578T = conditions: 72 h
In short: as §2

HCC1937 [2] = conditions: 72 h
In short: as §2

BT-474 = conditions: 72 h
In short: as §2

EC50, CellTiter-Blue viability (MDA-MB-468) [nM]	EC50, CellTiter-Blue viability (BT-549) [nM]	EC50, CellTiter-Blue viability (MDA-MB-231) [nM]	EC50, CellTiter-Blue viability (SK-BR-3) [nM]	EC50, CellTiter-Blue viability (MDA-MB-436) [nM]	EC50, CellTiter-Blue viability (HCC1937 [2]) [nM]	EC50, CellTiter-Blue viability (BT-474) [nM]	Compound	drug sensitivity score (MDA-MB-453)	drug sensitivity score (HCC1599)	drug sensitivity score (HCC1937 [1])	drug sensitivity score (CAL-85-1)	EC50, CellTiter-Blue viability (CAL-120) [nM]	EC50, CellTiter-Blue viability (MFM-223) [nM]	EC50, CellTiter-Blue viability (Hs578T) [nM]
88.3	125	32.6	10.2	107	14.6	28.6	Cc1[nH]c2ccccc2c1CCNCc1ccc(/C=C/C(=O)NO)cc1 [Panobinostat]	27.8	16.1	17.9	18.2	11.1	39.9	26.2
0.39	0.19	0.95	1.36	> 1000	1.12	0.55	CO[C@H]1C[C@@H]2CC[C@@H](C)[C@@](O)(O2)C(=O)C(=O)N2CCCC[C@H]2C(=O)O[C@H]([C@H](C)C[C@@H]2CC[C@@H](OP(C)(C)=O)[C@H](OC)C2)CC(=O)[C@H](C)/C=C(\C)[C@@H](O)[C@@H](OC)C(=O)[C@H](C)C[C@H](C)/C=C/C=C/C=C/1C [Ridaforolimus]	29.9	0	17.2	16	1	0.24	0.48
2.99	50.8	2.85	8.44	7.68	4.46	19.4	COCC[n+]1c2c(n(Cc3cnccn3)c1C)C(=O)c1ccccc1C2=O [YM155]	35.5	34	39.1	38	3.68	17.3	102
